Results taken from US20200017495A1, “NOVEL HETEROCYCLIC COMPOUNDS AND THEIR USE IN PREVENTING OR TREATING BACTERIAL INFECTIONS” (priority 2017, published 2020).

System: Escherichia coli (ECO) isolates
Assay: MIC of compounds alone and combined with antibacterials, broth microdilution (CLSI)
Assay type: cell-based
Outline: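 First, log-phase suspensions are brought to 5.10^5 CFU/mL final in ca-MHB; plates then incubate 16-20 h at 35° C in air. Growth is judged visually, giving the compound MIC alone and the antibacterial MIC at each compound concentration.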

With CC1(C)S[C@@H]2[C@H](NC(=O)[C@H](N)c3ccc(O)cc3)C(=O)N2[C@H]1C(=O)O [AMX, Amoxicillin] the “MIC ATB in combination” value (ECO 131119, CLA @ 4 μg/mL) was >512 µg/mL, the “MIC ATB in combination” value (ECO 180070, AF2 @ 8 μg/mL) was <0.25 µg/mL and the “MIC ATB in combination” value (ECO 180070, CLA @ 4 μg/mL) was 16 µg/mL. The “MIC ATB in combination” value (ECO 190314, AF2 @ 8 μg/mL) was <0.25 µg/mL, the “MIC ATB in combination” value (ECO 190314, CLA @ 4 μg/mL) was 8 µg/mL and the “MIC ATB in combination” value (ECO 190317, AF2 @ 8 μg/mL) was <0.25 µg/mL. For the same molecule, the “MIC ATB in combination” value (ECO 190317, CLA @ 4 μg/mL) was 64 µg/mL, the “MIC ATB in combination” value (ECO 190457, AF2 @ 8 μg/mL) was <0.25 µg/mL and the “MIC ATB in combination” value (ECO 190549, AF2 @ 8 μg/mL) was <0.25 µg/mL. For the same molecule, the “MIC ATB in combination” value (ECO 190549, CLA @ 4 μg/mL) was 8 µg/mL, the “MIC ATB in combination” value (ECO 200159, AF2 @ 8 μg/mL) was <0.25 µg/mL and the “MIC ATB in combination” value (ECO 200159, CLA @ 4 μg/mL) was 8 µg/mL. The “MIC ATB in combination” value (ECO 200259, AF2 @ 8 μg/mL) was <0.25 µg/mL, the “MIC ATB in combination” value (ECO 200259, CLA @ 4 μg/mL) was 8 µg/mL and the “MIC ATB in combination” value (ECO 200344, AF2 @ 8 μg/mL) was <0.25 µg/mL. The “MIC ATB in combination” value (ECO 200344, CLA @ 4 μg/mL) was 16 µg/mL, the “MIC ATB in combination” value (ECO 260096, AF2 @ 8 μg/mL) was 0.5 µg/mL and the “MIC ATB in combination” value (ECO 260096, CLA @ 4 μg/mL) was 4 µg/mL. For the same molecule, the “MIC ATB in combination” value (ECO 260304, AF2 @ 8 μg/mL) was <0.25 µg/mL, the “MIC ATB in combination” value (ECO 260304, CLA @ 4 μg/mL) was 4 µg/mL and the “MIC ATB in combination” value (ECO 260508, AF2 @ 8 μg/mL) was <0.25 µg/mL. For the same molecule, the “MIC ATB in combination” value (ECO 260508, CLA @ 4 μg/mL) was 64 µg/mL, the “MIC ATB in combination” value (ECO RGN238, AF2 @ 8 μg/mL) was <0.25 µg/mL and the “MIC ATB in combination” value (ECO UFR15, AF2 @ 8 μg/mL) was <0.25 µg/mL. The “MIC ATB in combination” value (ECO UFR16, AF2 @ 8 μg/mL) was <0.25 µg/mL, the “MIC ATB in combination” value (ECO UFR18, AF2 @ 8 μg/mL) was <0.25 µg/mL and the “MIC ATB in combination” value (ECO UFR19, AF2 @ 8 μg/mL) was <0.25 µg/mL. The “MIC ATB in combination” value (ECO UFR32, AF2 @ 8 μg/mL) was <0.25 µg/mL, the “MIC ATB in combination” value (ECO UFR39, AF2 @ 8 μg/mL) was <0.25 µg/mL and the “MIC ATB in combination” value (ECO UFR41, AF2 @ 8 μg/mL) was <0.25 µg/mL. For the same molecule, the “MIC ATB in combination” value (ECO UFR45, AF2 @ 8 μg/mL) was <0.25 µg/mL, the “MIC ATB in combination” value (ECO UFR61O, AF2 @ 8 μg/mL) was 4 µg/mL and the “MIC ATB in combination” value (ECO UFR62, AF2 @ 8 μg/mL) was <0.25 µg/mL. The “MIC ATB in combination” value (ECO UFR74, AF2 @ 8 μg/mL) was <0.25 µg/mL, the “MIC ATB in combination” value (ECO UFR86, AF2 @ 8 μg/mL) was 2 µg/mL and the “MIC ATB in combination” value (ECO UFR86, CLA @ 4 μg/mL) was 8 µg/mL. For the same molecule, the “MIC ATB in combination” value (ECO UFR209, CLA @ 4 μg/mL) was 32 µg/mL, the “MIC ATB in combination” value (ECO UFR210, CLA @ 4 μg/mL) was 8 µg/mL and the “MIC ATB in combination” value (ECO UFR211, CLA @ 4 μg/mL) was 8 µg/mL. The MIC (strain ECO 4133, genotype TEM-30, OXA-1) was >256 µg/mL, the MIC (strain ECO 5302, genotype TEM-1, OXA-1) was >256 µg/mL and the MIC (strain ECO 131119, genotype TEM-1, OXA-48) was >1024 µg/mL. The MIC (strain ECO 180070, genotype TEM-1, CTX-M-15) was >256 µg/mL, the MIC (strain ECO 190314, genotype CTX-M-1) was >256 µg/mL and the MIC (strain ECO 190317, genotype TEM-1, SHV-12, CTX-M-15, OXA-1) was >1024 µg/mL. The MIC (strain ECO 190457, genotype CTX-M-15, OXA-1) was >256 µg/mL, the MIC (strain ECO 190549, genotype CTX-M-1) was >256 µg/mL and the MIC (strain ECO 200159, genotype TEM-1, CTX-M-14) was >256 µg/mL. For the same molecule, the MIC (strain ECO 200259, genotype CTX-M-14) was >256 µg/mL, the MIC (strain ECO 200344, genotype CTX-M-1) was >256 µg/mL and the MIC (strain ECO 260096, genotype CTX-M-132) was >256 µg/mL. The MIC (strain ECO 260304, genotype CTX-M-15) was >256 µg/mL, the MIC (strain ECO 260508, genotype TEM-1, CTX-M-15, OXA-1) was >256 µg/mL and the MIC (strain ECO RGN238, genotype OXA-1) was >1024 µg/mL. For the same molecule, the MIC (strain ECO UFR15, genotype TEM-1, OXA-48) was >256 µg/mL, the MIC (strain ECO UFR16, genotype TEM-1, CTX-M-15, OXA-1, OXA-48) was >256 µg/mL and the MIC (strain ECO UFR17, genotype TEM-1, CTX-M-15, CMY-2, OXA-1, OXA-181) was >256 µg/mL. The MIC (strain ECO UFR18, genotype CTX-M-15, OXA-204) was >256 µg/mL, the MIC (strain ECO UFR19, genotype CTX-M-15, CMY-2, OXA-1, OXA-204) was >256 µg/mL and the MIC (strain ECO UFR20, genotype SHV-1, CTX-M-15, OXA-1, OXA-232) was >256 µg/mL. The MIC (strain ECO UFR32, genotype TEM-1, VEB-1, OXA-10) was >256 µg/mL, the MIC (strain ECO UFR39, genotype CTX-M-15, NDM-1) was >1024 µg/mL and the MIC (strain ECO UFR41, genotype TEM-1, CTX-M-15, CMY-2, OXA-1, NDM-4) was >256 µg/mL. For the same molecule, the MIC (strain ECO UFR45, genotype TEM-1, CMY-4, OXA-1, OXA-48, VIM-1) was >256 µg/mL, the MIC (strain ECO UFR52, genotype TEM-1, SHV-12, IMP-8) was >256 µg/mL and the MIC (strain ECO UFR61O, genotype TEM-1, KPC-2) was >256 µg/mL. For the same molecule, the MIC (strain ECO UFR62, genotype TEM-1, CTX-M-9, KPC-2) was >256 µg/mL, the MIC (strain ECO UFR74, genotype SHV-1, DHA-1) was >256 µg/mL and the MIC (strain ECO UFR86, genotype ompC-, ompF-) was 16 µg/mL. For the same molecule, the MIC (strain ECO UFR174, genotype TEM-1, KPC-2, OXA-1) was >128 µg/mL, the MIC (strain ECO UFR175, genotype TEM-1, KPC-2, OXA-9) was >128 µg/mL and the MIC (strain ECO UFR176, genotype KPC-3, OXA-9*) was >128 µg/mL. For the same molecule, the MIC (strain ECO UFR177, genotype TEM-1, CTX-M-15, OXA-1, OXA-2, NDM-1, RmtC, antibiotic alone) was >128 µg/mL, the MIC (strain ECO UFR178, genotype TEM-1, CTX-M-15, OXA-9, NDM-1, antibiotic alone) was >128 µg/mL and the MIC (strain ECO UFR179, genotype TEM-1, SHV-12, CTX-M-15, NDM-1, antibiotic alone) was >128 µg/mL. For the same molecule, the MIC (strain ECO UFR180, genotype TEM-1, CMY-30, OXA-1, NDM-1, antibiotic alone) was >128 µg/mL, the MIC (strain ECO UFR181, genotype TEM-1, CTX-M-15, NDM-5, antibiotic alone) was >128 µg/mL and the MIC (strain ECO UFR182, genotype CTX-M-15, OXA-1, NDM-6, antibiotic alone) was >128 µg/mL. For the same molecule, the MIC (strain ECO UFR183, genotype CTX-M-15, OXA-1, NDM-7, antibiotic alone) was >128 µg/mL, the MIC (strain ECO UFR184, genotype CTX-M-15, CMY-4, OXA-1, OXA-204) was >128 µg/mL and the MIC (strain ECO UFR185, genotype OXA-48) was >128 µg/mL. For the same molecule, the MIC (strain ECO UFR186, genotype TEM-1, CTX-M-14, OXA-48) was >128 µg/mL, the MIC (strain ECO UFR187, genotype CTX-M-15, OXA-48) was >128 µg/mL and the MIC (strain ECO UFR189, genotype TEM-1, CTX-M-15, OXA-48) was >128 µg/mL. The MIC (strain ECO UFR190, genotype CTX-M-24, OXA-48) was >128 µg/mL, the MIC (strain ECO UFR191, genotype TEM-1, CTX-M-24, OXA-48) was >128 µg/mL and the MIC (strain ECO UFR204, genotype TEM-1, CMY-4, OXA-48, VIM-1, antibiotic alone) was >128 µg/mL. For the same molecule, the MIC (strain ECO UFR205, genotype CTX-M-15, VIM-4, antibiotic alone) was >128 µg/mL, the MIC (strain ECO UFR206, genotype TEM-1, CTX-M-15, OXA-1, VIM-4, antibiotic alone) was >128 µg/mL and the MIC (strain ECO UFR207, genotype CTX-M-15) was >128 µg/mL. The MIC (strain ECO UFR208, genotype SHV-12) was >128 µg/mL, the MIC (strain ECO UFR209, genotype TEM-1, CTX-M-15) was >128 µg/mL and the MIC (strain ECO UFR210, genotype SHV-12) was >128 µg/mL. The MIC (strain ECO UFR211, genotype TEM-24) was >128 µg/mL, the MIC (strain ECO UFR212, genotype CMY-2) was >128 µg/mL and the MIC (strain ECO UFR218, genotype TEM-1, SHV-1, CTX-M-15) was >128 µg/mL. For the same molecule, the MIC (strain ECO UFR252GO, genotype VIM-2, antibiotic alone) was >128 µg/mL and the MIC (strain ECO UFR255, genotype NDM-1, antibiotic alone) was >128 µg/mL.
